The values below are quoted from earlier work in patent US20030031589A1, “Control of gaseous sterilisation” (priority 2002, published 2003).

Structures are written as SMILES. Read-outs that look alike come from different tables or passages of the source.

Data set [1] concerns spores.
For data set [2] the following is noted: high relative humidity.
Data set [3] deals with bacillus subtilis. The following applies: aqueous solutions; 'D' values depend on concentration and temperature.

Take `CC(=O)OO` [Peracetic vapour, peracetic acid]: the effectiveness of vapour result in data set [1] (RH of 20%) is listed as “ineffective”; in data set [1] (RH of 80%), “effective”.

For the molecule `C=O` [formalin vapour, formaldehyde], the “effectiveness of vapour vs relative humidity” value in data set [2] is on record as “more effective at high relative humidity”.

For the molecule `OO` [hydrogen peroxide], the sporicidal activity result in data set [3] is “sporicidal”.
